From US8450454B2, “Compositions for inhibiting ABAD/ABeta protein interaction” (The Trustees of Columbia University in the City of New York, priority 2004, dated 2013)
Ends that are not written are not given here.

T1: ABAD (Homo sapiens, UniProt Q99714)
T1 construct: made in house
T1 sequence (Q99714 1-261): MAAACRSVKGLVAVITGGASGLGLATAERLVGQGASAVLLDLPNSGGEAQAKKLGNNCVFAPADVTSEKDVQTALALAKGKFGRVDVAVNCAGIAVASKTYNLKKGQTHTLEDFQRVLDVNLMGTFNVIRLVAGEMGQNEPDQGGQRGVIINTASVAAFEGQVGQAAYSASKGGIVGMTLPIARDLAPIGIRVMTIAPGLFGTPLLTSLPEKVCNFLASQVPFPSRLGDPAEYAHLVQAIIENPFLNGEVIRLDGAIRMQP

B1: GST-ABAD(1-158): GST-ABAD truncation mutant, residues 1-158 (protein)
chain: MAAACRSVKGLVAVITGGASGLGLATAERLVGQGASAVLLDLPNSGGEAQAKKLGNNCVFAPADVTSEKDVQTALALAKGKFGRVDVAVNCAGIAVASKTYNLKKGQTHTLEDFQRVLDVNLMGTFNVIRLVAGEMGQNEPDQGGQRGVIINTASVAA
modifications: left off: a dimerising Fc or GST
B2: S98A, K99A, Y101A: site-directed ABAD mutant (protein, UniProt Q99714 2-261, looked up, variant S98A K99A Y101A)
3-hydroxyacyl-CoA …: AAACRSVKGLVAVITGGASGLGLATAERLVGQGASAVLLDLPNSGGEAQAKKLGNNCVFAPADVTSEKDVQTALALAKGKFGRVDVAVNCAGIAVAAATANLKKGQTHTLEDFQRVLDVNLMGTFNVIRLVAGEMGQNEPDQGGQRGVIINTASVAAFEGQVGQAAYSASKGGIVGMTLPIARDLAPIGIRVMTIAPGLFGTPLLTSLPEKVCNFLASQVPFPSRLGDPAEYAHLVQAIIENPFLNGEVIRLDGAIRMQP
B3: GST-ABAD(1-186): GST-ABAD truncation mutant, residues 1-186 (protein)
chain: MAAACRSVKGLVAVITGGASGLGLATAERLVGQGASAVLLDLPNSGGEAQAKKLGNNCVFAPADVTSEKDVQTALALAKGKFGRVDVAVNCAGIAVASKTYNLKKGQTHTLEDFQRVLDVNLMGTFNVIRLVAGEMGQNEPDQGGQRGVIINTASVAAFEGQVGQAAYSASKGGIVGMTLPIARDL
modifications: left off: a dimerising Fc or GST
B4: GST-ABAD(159-261): GST-ABAD truncation mutant, residues 159-261 (protein)
chain: FEGQVGQAAYSASKGGIVGMTLPIARDLAPIGIRVMTIAPGLFGTPLLTSLPEKVCNFLASQVPFPSRLGDPAEYAHLVQAIIENPFLNGEVIRLDGAIRMQP
modifications: left off: a dimerising Fc or GST

Experiments:
[1] = tested on: cultured neurons; assay: DNA fragmentation (Cell Death Detection ELISA) in cultured neurons; assay type: cell-based, mouse; conditions: neurons from Tg mAPP/ABAD mice (spontaneous) and Tg ABAD mice exposed to Aβ, peptide pretreatment
[2] = tested on: cultured neurons; assay: LDH release from cultured neurons; assay type: cell-based, mouse; conditions: neurons from Tg mAPP/ABAD mice (spontaneous) and Tg ABAD mice exposed to Aβ, peptide pretreatment
[3] = target: T1, ABAD; assay: Binding of fluorescein-labeled ABAD to amyloid-related peptide immobilized on microtiter wells
[4] = target: T2, ABAD-Aβ (1-40) interaction (Homo sapiens, UniProt P05067); assay: Surface plasmon resonance (Biacore): inhibition of Aβ (1-40) binding to immobilized ABAD; conditions: one-site competitive inhibition fit
T2 construct: made in house
T2 sequence (P05067 672-711): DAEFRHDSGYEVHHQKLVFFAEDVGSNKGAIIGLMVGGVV
Description: (§1) 3) and ABAD reverse peptide (ABAD-RP, residues 120-92) were synthesized by Biotechnology Lab at Yale University. For binding studies, ABAD was immobilized on CM5 sensor chip (29). […] The reaction/binding buffer contained 50 mM Hepes at pH 7.4, 0.15 M NaCl, 1 mM EDTA, and 0.005% Tween 20. Data analysis was performed using Biacore X biosensor system (Uppsala, Sweden) and BIA evaluation 3.0 software (Biacore, Sweden). Response data are plotted in Resonance Units versus ABAD peptide concentrations (nM), and were fit to a one-site model for competitive inhibition to obtain the Ki.

[5] = target: T3, ABAD-Aβ (1-42) interaction (Homo sapiens, UniProt P05067); assay: Surface plasmon resonance (Biacore): inhibition of Aβ (1-42) binding to immobilized ABAD; conditions: one-site competitive inhibition fit
T3 construct: made in house
T3 sequence (P05067 672-713): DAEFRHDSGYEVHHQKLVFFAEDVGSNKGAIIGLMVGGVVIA
Description: as §1

[6] = target: Aβ (1-42) (Homo sapiens, UniProt P05067); assay: Binding of 125I-labeled GST-ABAD or ABAD mutants to immobilized Aβ (1-42); design: key: +: Specific binding comparable to that observed with wild type ABAD; −: No observed specific binding; conditions: 125I-labeled GST-ABAD or ABAD to immobilized Aβ (1-42)
Aβ (1-42), sequence (P05067 672-713): as above

[7] = target: Aβ (1-40) (Homo sapiens, UniProt P05067); assay: Surface plasmon resonance: Aβ (1-40) binding to immobilized wild-type or mutant ABAD; conditions: ABAD immobilized on sensor chip, Aβ (1-40) mobile phase
Aβ (1-40), sequence (P05067 672-711): as the sequence (P05067 672-711) above
Description: as §1, with “[…]; SEQ ID NO. 3)” for “3)”

Molecule | binding to ABAD (in words) [3] | Aβ Binding [6] | further results
CC[C@H](C)[C@H](NC(=O)CNC(=O)[C@H](C)N)C(=O)N[C@@H](C)C(=O)N[C@H](C(=O)N[C@@H](C)C(=O)N[C@@H](CO)C(=O)N[C@@H](CCCCN)C(=O)N[C@H](C(=O)N[C@@H](Cc1ccc(O)cc1)C(=O)N[C@@H](CC(N)=O)C(=O)N[C@@H](CC(C)C)C(=O)N[C@@H](CCCCN)C(=O)N[C@@H](CCCCN)C(=O)NCC(=O)N[C@@H](CCC(N)=O)C(=O)N[C@H](C(=O)N[C@@H](Cc1c[nH]cn1)C(=O)N[C@H](C(=O)N[C@@H](CC(C)C)C(=O)N[C@@H](CCC(=O)O)C(=O)N[C@@H](CC(=O)O)C(=O)N[C@@H](Cc1ccccc1)C(=O)N[C@@H](CCC(N)=O)C(=O)N[C@@H](CCCNC(=N)N)C(=O)N[C@H](C(=O)N[C@@H](CC(C)C)C(=O)N[C@@H](CC(=O)O)C(=O)N[C@H](C(=O)O)C(C)C)C(C)C)[C@@H](C)O)[C@@H](C)O)[C@@H](C)O)C(C)C [ABAD-DP] |  |  | DNA fragmentation (cytotoxicity) [1]: attenuated cytotoxicity; LDH release (cytotoxicity) [2]: attenuated cytotoxicity
CC[C@H](C)[C@H](NC(=O)[C@H](C)NC(=O)CNC(=O)[C@H](Cc1ccccc1)NC(=O)[C@H](CC(N)=O)NC(=O)[C@H](CC(N)=O)NC(=O)[C@H](CO)NC(=O)[C@H](CO)NC(=O)[C@H](Cc1c[nH]cn1)NC(=O)[C@@H](NC(=O)[C@H](CC(C)C)NC(=O)[C@H](Cc1ccccc1)NC(=O)[C@H](CC(N)=O)NC(=O)[C@H](C)NC(=O)[C@H](CC(C)C)NC(=O)[C@H](CCCNC(=N)N)NC(=O)[C@H](CCC(N)=O)NC(=O)[C@@H](NC(=O)[C@H](C)NC(=O)[C@@H]1CSSC[C@H](NC(=O)[C@@H](N)CCCCN)C(=O)N[C@@H](CC(N)=O)C(=O)N[C@@H]([C@@H](C)O)C(=O)N[C@@H](C)C(=O)N[C@@H]([C@@H](C)O)C(=O)N1)[C@@H](C)O)C(C)C)C(=O)N[C@@H](CC(C)C)C(=O)N[C@@H](CO)C(=O)N[C@@H](CO)C(=O)N[C@H](C(=O)N[C@@H](CC(N)=O)C(=O)N[C@H](C(=O)NCC(=O)N[C@@H](CO)C(=O)N[C@@H](CC(N)=O)C(=O)N[C@H](C(=O)N[C@@H](Cc1ccc(O)cc1)C(N)=O)[C@@H](C)O)C(C)C)[C@@H](C)O [Amylin] | did not bind |  | 
CC(C)C[C@H](NC(=O)[C@H](CCCCN)NC(=O)[C@H](CCC(N)=O)NC(=O)[C@H](Cc1c[nH]cn1)NC(=O)[C@H](Cc1c[nH]cn1)NC(=O)[C@@H](NC(=O)[C@H](CCC(=O)O)NC(=O)[C@H](Cc1ccc(O)cc1)NC(=O)CNC(=O)[C@H](CO)NC(=O)[C@H](CC(=O)O)NC(=O)[C@H](Cc1c[nH]cn1)NC(=O)[C@H](CCCNC(=N)N)NC(=O)[C@H](Cc1ccccc1)NC(=O)[C@H](CCC(=O)O)NC(=O)[C@H](C)NC(=O)[C@@H](N)CC(=O)O)C(C)C)C(=O)N[C@H](C(=O)N[C@@H](Cc1ccccc1)C(=O)N[C@@H](Cc1ccccc1)C(=O)O)C(C)C [Aβ 1-20] | dose-dependent binding |  | 
GSNKGAIIGLM [Aβ 25-35] | no specific binding |  | Kd ([3]; peptide immobilized on microtiter wells, fluorescein-labeled ABAD added): > 1000 nM
VDLVRQFDELTHTQGKKLNYTKSAVAIGA [ABAD-RP, reference compound] |  |  | DNA fragmentation (cytotoxicity) [1]: not; inhibitory constant, binding of Aβ (1-40) to immobilized intact ABAD [4]: completely inactive; inhibitory constant, binding of Aβ (1-42) to immobilized intact ABAD [5]: completely inactive
B1 |  | + | 
B2 |  | − | interaction with Aβ in surface plasmon resonance [7]: no specific interaction
B3 |  | + | 
B4 |  | − | 
